This assay has as its system Raji (Burkitt's) lymphoma cells. Description: MTT assay for 4-day viability of Raji (Burkitt's) lymphoma cells. As to conditions: Homo sapiens, 96 h, Raji cells (highly express MCT1), read-out: approximate potency (EC50). Type of assay: cell-based. The text has this:
Specific Examples 1-52 of compounds of the invention, with estimated EC50 values determined using an MTT assay for 4-day viability of Raji (Burkitt's) lymphoma cells, a cell line known to highly express MCT1 and to be sensitive to small molecule MCT inhibitors,^4 are shown in Table 2. Assay protocols follow those described in the literature.^4 Other assays that are not described here but that are standard in the field, such as an assay for competitive inhibition of transport of radiolabeled lactic acid, an MCT substrate, may also be useful in establishing mechanism of action of these compounds.
What is called EC50 is the midpoint of the concentration-response curve. `Cc1n[nH]c(C)c1Cc1sc2c(c1-c1cccc(CO)c1F)c(=O)n(C)c(=O)n2CC(C)C` [Example 1, 6-((3,5-dimethyl-1H-pyrazol-4-yl)methyl)-5-(2-fluoro-3-(hydroxymethyl)phenyl)-1-isobutyl-3-methylthieno[2,3-d]pyrimidine-2,4(1H,3H)-dione]: the half-maximal effective concentration (EC50) was no more than 20 nM.

In the case of `Cc1cc(CO)c(F)c(-c2c(Cc3c(C)n[nH]c3C)sc3c2c(=O)n(C)c(=O)n3CC(C)C)c1` [Example 2, 6-((3,5-dimethyl-1H-pyrazol-4-yl)methyl)-5-(2-fluoro-3-(hydroxymethyl)-5-methylphenyl)-1-isobutyl-3-methylthieno[2,3-d]pyrimidine-2,4(1H,3H)-dione], the half-maximal effective concentration (EC50) turned out to be 100 nM. In the case of `Cc1n[nH]c(C)c1Cc1sc2c(c1-c1c(F)cc(F)c(CO)c1F)c(=O)n(C)c(=O)n2CC(C)C` [Example 3, 6-((3,5-dimethyl-1H-pyrazol-4-yl)methyl)-1-isobutyl-3-methyl-5-(2,4,6-trifluoro-3-(hydroxymethyl)phenyl)thieno[2,3-d]pyrimidine-2,4(1H,3H)-dione] it was 1000 to 10000 nM. Turning to `Cc1n[nH]c(C)c1Cc1sc2c(c1-c1cnc(F)c(CO)c1)c(=O)n(C)c(=O)n2CC(C)C` [Example 4, 6-((3,5-dimethyl-1H-pyrazol-4-yl)methyl)-5-(6-fluoro-5-(hydroxymethyl)pyridin-3-yl)-1-isobutyl-3-methylthieno[2,3-d]pyrimidine-2,4(1H,3H)-dione], the EC50 turned out to be 200 nM.

For the compound `Cc1n[nH]c(C)c1Cc1sc2c(c1-c1cc(F)c(F)c(CO)c1)c(=O)n(C)c(=O)n2CC(C)C` [Example 5, 5-(3,4-difluoro-5-(hydroxymethyl)phenyl)-6-((3,5-dimethyl-1H-pyrazol-4-yl)methyl)-1-isobutyl-3-methylthieno[2,3-d]pyrimidine-2,4(1H,3H)-dione], the EC50 is 160 nM. With `Cc1n[nH]c(C)c1Cc1sc2c(c1-c1cc(CO)c(F)cc1F)c(=O)n(C)c(=O)n2CC(C)C` [Example 6, 5-(2,4-difluoro-5-(hydroxymethyl)phenyl)-6-((3,5-dimethyl-1H-pyrazol-4-yl)methyl)-1-isobutyl-3-methylthieno[2,3-d]pyrimidine-2,4(1H,3H)-dione], the EC50 was no more than 20 nM. Take `Cc1n[nH]c(C)c1Cc1sc2c(c1-c1ccc(F)c(CO)c1F)c(=O)n(C)c(=O)n2CC(C)C` [Example 7, 5-(2,4-difluoro-3-(hydroxymethyl)phenyl)-6-((3,5-dimethyl-1H-pyrazol-4-yl)methyl)-1-isobutyl-3-methylthieno[2,3-d]pyrimidine-2,4(1H,3H)-dione]: the EC50 is no more than 20 nM.

With `Cc1n[nH]c(C)c1Cc1sc2c(c1-c1cncc(C(O)C(F)(F)F)c1)c(=O)n(C)c(=O)n2CC(C)C` (stereo not drawn) [Example 8, 6-((3,5-dimethyl-1H-pyrazol-4-yl)methyl)-1-isobutyl-3-methyl-5-(5-(2,2,2-trifluoro-1-hydroxyethyl)pyridin-3-yl)thieno[2,3-d]pyrimidine-2,4(1H,3H)-dione], the EC50 came out at 34 nM. `Cc1n[nH]c(C)c1Cc1sc2c(c1-c1ccnc(CO)c1)c(=O)n(C)c(=O)n2CC(C)C` [Example 10, 6-((3,5-dimethyl-1H-pyrazol-4-yl)methyl)-5-(2-(hydroxymethyl)pyridin-4-yl)-1-isobutyl-3-methylthieno[2,3-d]pyrimidine-2,4(1H,3H)-dione]: the EC50 worked out at 90 nM. As for `Cc1n[nH]c(C)c1Cc1sc2c(c1-c1cc(F)cc(CO)c1)c(=O)n(C)c(=O)n2CC(C)C` [Example 11, 6-((3,5-dimethyl-1H-pyrazol-4-yl)methyl)-5-(3-fluoro-5-(hydroxymethyl)phenyl)-1-isobutyl-3-methylthieno[2,3-d]pyrimidine-2,4(1H,3H)-dione], the figure is 25 nM; as for `Cc1n[nH]c(C)c1Cc1sc2c(c1-c1cncc(CO)c1)c(=O)n(C)c(=O)n2CC(C)C` [Example 12, 6-((3,5-dimethyl-1H-pyrazol-4-yl)methyl)-5-(5-(hydroxymethyl)pyridin-3-yl)-1-isobutyl-3-methylthieno[2,3-d]pyrimidine-2,4(1H,3H)-dione], 75 nM. In the case of `Cc1n[nH]c(C)c1Cc1sc2c(c1-c1cccc(C(C)O)c1)c(=O)n(C)c(=O)n2CC(C)C` (stereo not drawn) [Example 13, 6-((3,5-dimethyl-1H-pyrazol-4-yl)methyl)-5-(3-(1-hydroxyethyl)phenyl)-1-isobutyl-3-methylthieno[2,3-d]pyrimidine-2,4(1H,3H)-dione] it was 50 nM. For the compound `Cc1n[nH]c(C)c1Cc1sc2c(c1-c1cccc(C(O)C(F)(F)F)c1)c(=O)n(C)c(=O)n2CC(C)C` (stereo not drawn) [Example 14, 6-((3,5-dimethyl-1H-pyrazol-4-yl)methyl)-1-isobutyl-3-methyl-5-(3-(2,2,2-trifluoro-1-hydroxyethyl)phenyl)thieno[2,3-d]pyrimidine-2,4(1H,3H)-dione], the concentration for a half-maximal effect (EC50) was less than 20 nM. As for `Cc1n[nH]c(C)c1Cc1sc2c(c1-c1cccc(CO)c1)c(=O)n(C)c(=O)n2CC(C)C` [Example 15, 6-((3,5-dimethyl-1H-pyrazol-4-yl)methyl)-5-(3-(hydroxymethyl)phenyl)-1-isobutyl-3-methylthieno[2,3-d]pyrimidine-2,4(1H,3H)-dione], the figure is less than 20 nM; as for `Cc1n[nH]c(C)c1Cc1sc2c(c1-c1ccc(F)c(CO)c1)c(=O)n(C1CC1)c(=O)n2CC(C)C` [Example 16, 3-cyclopropyl-6-((3,5-dimethyl-1H-pyrazol-4-yl)methyl)-5-(4-fluoro-3-(hydroxymethyl)phenyl)-1-isobutylthieno[2,3-d]pyrimidine-2,4(1H,3H)-dione], 220 nM; as for `Cc1cc(CO)c(F)c(-c2c(Cc3c(C)n[nH]c3C)sc3c2c(=O)n(C2CC2)c(=O)n3CC(C)C)c1` [Example 17, 3-cyclopropyl-6-((3,5-dimethyl-1H-pyrazol-4-yl)methyl)-5-(2-fluoro-3-(hydroxymethyl)-5-methylphenyl)-1-isobutylthieno[2,3-d]pyrimidine-2,4(1H,3H)-dione], 100 nM. For the compound `Cc1n[nH]c(C)c1Cc1sc2c(c1-c1cc(F)c(F)c(CO)c1)c(=O)n(C1CC1)c(=O)n2CC(C)C` [Example 18, 3-cyclopropyl-5-(3,4-difluoro-5-(hydroxymethyl)phenyl)-6-((3,5-dimethyl-1H-pyrazol-4-yl)methyl)-1-isobutylthieno[2,3-d]pyrimidine-2,4(1H,3H)-dione], the EC50 worked out at 900 nM. In the case of `Cc1n[nH]c(C)c1Cc1sc2c(c1-c1cc(CO)c(F)cc1F)c(=O)n(C1CC1)c(=O)n2CC(C)C` [Example 19, 3-cyclopropyl-5-(2,4-difluoro-5-(hydroxymethyl)phenyl)-6-((3,5-dimethyl-1H-pyrazol-4-yl)methyl)-1-isobutylthieno[2,3-d]pyrimidine-2,4(1H,3H)-dione] it was 70 nM.

On to `Cc1n[nH]c(C)c1Cc1sc2c(c1-c1cccc(CO)c1F)c(=O)n(C1CC1)c(=O)n2CC(C)C` [Example 20, 3-cyclopropyl-6-((3,5-dimethyl-1H-pyrazol-4-yl)methyl)-5-(2-fluoro-3-(hydroxymethyl)phenyl)-1-isobutylthieno[2,3-d]pyrimidine-2,4(1H,3H)-dione], for which the EC50 was no more than 20 nM.

Take `Cc1n[nH]c(C)c1Cc1sc2c(c1-c1cc(CO)ccc1F)c(=O)n(C1CC1)c(=O)n2CC(C)C` [Example 22, 3-cyclopropyl-6-((3,5-dimethyl-1H-pyrazol-4-yl)methyl)-5-(2-fluoro-5-(hydroxymethyl)phenyl)-1-isobutylthieno[2,3-d]pyrimidine-2,4(1H,3H)-dione]: the EC50 was no more than 20 nM.

As to `Cc1n[nH]c(C)c1Cc1sc2c(c1-c1ccnc(CO)c1)c(=O)n(C1CC1)c(=O)n2CC(C)C` [Example 23, 3-cyclopropyl-6-((3,5-dimethyl-1H-pyrazol-4-yl)methyl)-5-(2-(hydroxymethyl)pyridin-4-yl)-1-isobutylthieno[2,3-d]pyrimidine-2,4(1H,3H)-dione], the half-maximal effective concentration (EC50) was no more than 20 nM. In the case of `Cc1n[nH]c(C)c1Cc1sc2c(c1-c1cccc(CO)c1)c(=O)n(C1CC1)c(=O)n2CC(C)C` [Example 24, 3-cyclopropyl-6-((3,5-dimethyl-1H-pyrazol-4-yl)methyl)-5-(3-(hydroxymethyl)phenyl)-1-isobutylthieno[2,3-d]pyrimidine-2,4(1H,3H)-dione] it was 1000 nM; in that of `CC(C)Cc1nn(C)c(=O)c2c(-c3ncc(CO)s3)n(Cc3cccc4ccccc34)cc12` [Example 25, 7-(5-(hydroxymethyl)thiazol-2-yl)-4-isobutyl-2-methyl-6-(naphthalen-1-ylmethyl)-2,6-dihydro-1H-pyrrolo[3,4-d]pyridazin-1-one], 300 nM.

On to `CC(C)Cc1nn(C)c(=O)c2c(-c3csc(CO)n3)n(Cc3cccc4ccccc34)cc12` [Example 26, 7-(2-(hydroxymethyl)thiazol-4-yl)-4-isobutyl-2-methyl-6-(naphthalen-1-ylmethyl)-2,6-dihydro-1H-pyrrolo[3,4-d]pyridazin-1-one], for which the EC50 turned out to be 90 nM. Consider `CC(C)Cc1nn(C)c(=O)c2c(-c3ccc(F)c(CO)c3F)n(Cc3cccc4ccccc34)cc12` [Example 27, 7-(2,4-difluoro-3-(hydroxymethyl)phenyl)-4-isobutyl-2-methyl-6-(naphthalen-1-ylmethyl)-2,6-dihydro-1H-pyrrolo[3,4-d]pyridazin-1-one], for which the EC50 is 80 nM. In the case of `CC(C)Cc1nn(C)c(=O)c2c(-c3cc(CO)ccc3F)n(Cc3cccc4ccccc34)cc12` [Example 28, 7-(2-fluoro-5-(hydroxymethyl)phenyl)-4-isobutyl-2-methyl-6-(naphthalen-1-ylmethyl)-2,6-dihydro-1H-pyrrolo[3,4-d]pyridazin-1-one] it was 40 nM; in that of `CC(C)Cc1nn(C)c(=O)c2c(-c3cccc(CO)c3F)n(Cc3cccc4ccccc34)cc12` [Example 29, 7-(2-fluoro-3-(hydroxymethyl)phenyl)-4-isobutyl-2-methyl-6-(naphthalen-1-ylmethyl)-2,6-dihydro-1H-pyrrolo[3,4-d]pyridazin-1-one], 80 nM.

Source of the values: patent US10329303B2, “Heterocyclic inhibitors of monocarboxylate transporter” (THE SCRIPPS RESEARCH INSTITUTE, priority 2015, dated 2019).
